Data on 5 molecules can be found in ChEMBL document CHEMBL1131184, “Novel CDC25A phosphatase inhibitors from pyrolysis of 3-alpha-azido-B-homo-6-oxa-4-cholesten-7-one on silica gel” (J Med Chem, 1998).

This assay concerns the target T1, M-phase inducer phosphatase 1 (Homo sapiens, UniProt P30304).
T1 sequence (P30304 whole entry): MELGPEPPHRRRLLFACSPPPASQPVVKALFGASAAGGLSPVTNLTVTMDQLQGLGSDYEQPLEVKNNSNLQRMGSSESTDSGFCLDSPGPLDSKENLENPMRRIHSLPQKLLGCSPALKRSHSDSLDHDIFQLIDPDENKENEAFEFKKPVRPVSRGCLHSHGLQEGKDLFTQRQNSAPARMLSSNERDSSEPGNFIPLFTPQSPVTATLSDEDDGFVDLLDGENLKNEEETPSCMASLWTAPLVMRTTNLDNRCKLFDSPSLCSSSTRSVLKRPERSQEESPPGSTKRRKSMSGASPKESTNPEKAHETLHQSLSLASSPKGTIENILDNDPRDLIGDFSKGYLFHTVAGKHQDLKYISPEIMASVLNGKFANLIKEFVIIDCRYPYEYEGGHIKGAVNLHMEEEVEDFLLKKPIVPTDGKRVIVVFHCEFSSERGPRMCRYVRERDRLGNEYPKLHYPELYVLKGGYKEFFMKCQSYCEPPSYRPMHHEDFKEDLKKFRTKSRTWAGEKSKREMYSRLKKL
Description: Compound was evaluated for the inhibition of Cdc25A phosphatase by using fluorescein diphosphate as substrate.

A value given as a limit tells only on which side of the number the result lay.

One may read the IC50 as the concentration that inhibits the measured activity by half. Read a low IC50 as inhibition by little substance. As to `C=C(CCCCC#N)[C@H]1CC[C@]2(C)[C@@H]([C@H](C)CCCC(C)C)CC[C@H]2[C@@H]1CC(=O)O`, the IC50 stood at 2.2 µM.

`CC(C)CCCC(C)[C@H]1CC[C@H]2[C@@H]3CC(=O)O[C@@](C)(CC/C=C\C#N)[C@H]3CC[C@]12C` (stereo not given in full) yielded an IC50 of 13.3 µM.

Molecule `CC(C)CCCC(C)[C@H]1CC[C@H]2[C@@H]3CC(=O)O[C@](C)(CC/C=C\C#N)[C@H]3CC[C@]12C` (stereo not given in full) yielded an IC50 greater than 50 µM.

Take `C/C(=C\C/C=C\C#N)[C@H]1CC[C@]2(C)[C@@H](C(C)CCCC(C)C)CC[C@H]2[C@@H]1CC(=O)O` (stereo not given in full): the IC50 amounted to 24.2 µM.

Regarding `C=C(CC/C=C\C#N)[C@H]1CC[C@]2(C)[C@@H](C(C)CCCC(C)C)CC[C@H]2[C@@H]1CC(=O)O` (stereo not given in full), inhibition was half-maximal at 9.7 µM (IC50).
